In BindingDB's records for doi:10.1021/jm950568w (Universita Di Roma, 1996):

Target: T1, Gag-Pol polyprotein [613-1167,R896S,E946D,S1117V]/[618-1043,R896S,E946D] (Human immunodeficiency virus 2, UniProt P04584, E946D/R896S/S1117V)
T1 construct: 613-1167; 618-1043
Experiment: HIV RT Assay
Conditions: pH 7.8; 37 °C

T1 sequence (P04584 613-1167, looked up, stated change not applied): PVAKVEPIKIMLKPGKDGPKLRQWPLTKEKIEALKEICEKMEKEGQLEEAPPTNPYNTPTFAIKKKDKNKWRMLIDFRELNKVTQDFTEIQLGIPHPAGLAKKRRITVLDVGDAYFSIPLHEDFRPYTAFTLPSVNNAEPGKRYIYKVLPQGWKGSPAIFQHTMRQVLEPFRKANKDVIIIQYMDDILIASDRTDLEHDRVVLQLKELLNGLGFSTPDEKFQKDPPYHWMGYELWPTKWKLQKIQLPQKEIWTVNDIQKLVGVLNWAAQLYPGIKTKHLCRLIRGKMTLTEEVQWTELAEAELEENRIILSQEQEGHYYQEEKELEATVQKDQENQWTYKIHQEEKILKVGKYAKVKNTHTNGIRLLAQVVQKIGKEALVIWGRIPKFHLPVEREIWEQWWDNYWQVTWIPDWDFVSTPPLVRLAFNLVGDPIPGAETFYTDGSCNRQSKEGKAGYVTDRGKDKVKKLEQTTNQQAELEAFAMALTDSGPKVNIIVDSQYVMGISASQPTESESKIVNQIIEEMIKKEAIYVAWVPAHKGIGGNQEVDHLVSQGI
T1 sequence (P04584 618-1043, looked up, stated change not applied): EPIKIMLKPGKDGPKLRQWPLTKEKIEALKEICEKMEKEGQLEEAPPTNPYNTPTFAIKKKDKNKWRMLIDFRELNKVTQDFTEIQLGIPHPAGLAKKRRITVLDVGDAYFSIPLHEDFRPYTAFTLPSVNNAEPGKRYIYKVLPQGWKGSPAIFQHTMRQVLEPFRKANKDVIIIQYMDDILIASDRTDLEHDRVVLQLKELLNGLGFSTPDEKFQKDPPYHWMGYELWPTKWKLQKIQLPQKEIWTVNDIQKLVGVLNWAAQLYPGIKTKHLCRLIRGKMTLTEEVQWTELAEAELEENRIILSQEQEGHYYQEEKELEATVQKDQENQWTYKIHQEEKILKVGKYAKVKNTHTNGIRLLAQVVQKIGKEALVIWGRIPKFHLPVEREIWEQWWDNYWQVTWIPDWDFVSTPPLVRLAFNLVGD

Row | SMILES | IC50 [µM]
1 | Cc1ccnc2c1NC(=O)c1cccnc1N2C1CC1 [BI-RG-587] | > 20
2 | CCOC(=O)c1cccn1S(=O)(=O)c1cc(Cl)ccc1N [ethyl 1-[(2-amino-5-chlorobenzene)sulfonyl]-1H-pyrrole-2-carboxylate] | > 20
3 | COC(=O)c1cccn1S(=O)(=O)c1cc(Cl)ccc1N [methyl 1-[(2-amino-5-chlorobenzene)sulfonyl]-1H-pyrrole-2-carboxylate] | > 20

Target: T2, Gag-Pol polyprotein [588-1027]/[588-1147] (Human immunodeficiency virus 1, UniProt P04585)
T2 construct: 588-1027; 588-1147
Experiment: HIV RT Assay
Conditions: pH 7.8; 37 °C

Row | SMILES | IC50 [µM]
4 | CCOC(=O)c1cccn1S(=O)(=O)c1cc(Cl)ccc1NC=O [Ethyl 1-[(5-Chloro-2-formamidophenyl)sulfonyl]-1Hpyrrole-2-carboxylate] | > 20
5 | CCOC(=O)c1cccn1S(=O)(=O)c1cc(Cl)ccc1NC(=O)CC [Ethyl 1-[(5-Chloro-2-propionamidophenyl)sulfonyl]-1H-pyrrole-2-carboxylate] | > 20
6 | CCOC(=O)c1cccn1S(=O)(=O)c1cc(Cl)ccc1NC(C)=O [ethyl 1-[(5-chloro-2-acetamidobenzene)sulfonyl]-1H-pyrrole-2-carboxylate] | > 20
7 | CCOC(=O)CC(=O)Nc1ccc(Cl)cc1S(=O)(=O)n1cccc1C(=O)OCC [ethyl 1-{[5-chloro-2-(ethyl 2-formamidoacetate)benzene]sulfonyl}-1H-pyrrole-2-carboxylate] | > 20
